In the supplement of paper PMC10307832:

Key:
Assay in all cases: relative viability (nuclei count vs DMSO), 5 days (fraction); higher = more cells survive
NCI-H727 = tested on: NCI-H727
Procedure, shortened: (§1)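 For relative viability, nuclei counts in treated wells were divided by those in vehicle wells. Lung cancer cell lines had been pin-tool dosed in 1536-well plates the day after seeding and cultured for 5 days, then fixed and stained in one step (final 0.05% Triton X-100, 1% formaldehyde, 1 ug/ml Hoechst) and imaged at 4×. Doses were one drug alone or a fixed anchor-drug dose plus five library-drug doses (not always all listed) in √10 steps, and values are duplicate-plate medians.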

LOU-NH91 = tested on: LOU-NH91
Procedure, shortened: as §1

NCI-H2170 = tested on: NCI-H2170
Procedure, shortened: as §1

NCI-H460 = tested on: NCI-H460
Procedure, shortened: as §1

ChaGo-K-1 = tested on: ChaGo-K-1
Procedure, shortened: as §1

EMC-BAC-2 = tested on: EMC-BAC-2
Procedure, shortened: as §1

NCI-H2126 = tested on: NCI-H2126
Procedure, shortened: as §1

NCI-H647 = tested on: NCI-H647
Procedure, shortened: as §1

NCI-H2347 = tested on: NCI-H2347
Procedure, shortened: as §1

NCI-H2405 = tested on: NCI-H2405
Procedure, shortened: as §1

NCI-H650 = tested on: NCI-H650
Procedure, shortened: as §1

HOP-62 = tested on: HOP-62
Procedure, shortened: as §1

NCI-H1437 = tested on: NCI-H1437
Procedure, shortened: as §1

LCLC-103H = tested on: LCLC-103H
Procedure, shortened: as §1

HCC-44 = tested on: HCC-44
Procedure, shortened: as §1

EPLC-272H = tested on: EPLC-272H
Procedure, shortened: as §1

NCI-H441 = tested on: NCI-H441
Procedure, shortened: as §1

NCI-H520 = tested on: NCI-H520
Procedure, shortened: as §1

NCI-H2009 = tested on: NCI-H2009
Procedure, shortened: as §1

NCI-H2023 = tested on: NCI-H2023
Procedure, shortened: as §1

SW 1573 = tested on: SW 1573
Procedure, shortened: as §1

NCI-H23 = tested on: NCI-H23
Procedure, shortened: as §1

Question: With `Cc1cnc(-c2cnc(NCCNc3ccc(C#N)cn3)nc2-c2ccc(Cl)cc2Cl)[nH]1` + C[C@@H](Oc1cc(-c2cnn(C3CCNCC3)c2)cnc1N)c1c(Cl)ccc(F)c1Cl [Crizotinib] (partner 1 µM) as the molecule, how does the relative viability (NCI-H727; first compound 0.08 µM) read?
Answer: The relative viability was 1.67.

Question: What about the relative viability (NCI-H727; first compound 0.253 µM) of the same molecule?
Answer: The relative viability was 0.771.

Question: What about the relative viability (NCI-H727; first compound 0.8 µM) of the same molecule?
Answer: The relative viability was 0.797.

Question: What about the relative viability (NCI-H727; first compound 2.53 µM) of the same molecule?
Answer: The relative viability was 0.676.

Question: And the relative viability (LOU-NH91; first compound 0.08 µM)?
Answer: Its relative viability is 0.74.

Question: And the relative viability (LOU-NH91; first compound 0.253 µM)?
Answer: Its relative viability is 0.724.

Question: And the relative viability (LOU-NH91; first compound 0.8 µM)?
Answer: Its relative viability is 0.749.

Question: And the relative viability (LOU-NH91; first compound 2.53 µM)?
Answer: The relative viability was 0.782.

Question: What about the relative viability (NCI-H2170; first compound 0.08 µM) of the same molecule?
Answer: Its relative viability is 1.25.

Question: What about the relative viability (NCI-H2170; first compound 0.253 µM) of the same molecule?
Answer: Its relative viability is 1.07.

Question: What about the relative viability (NCI-H2170; first compound 0.8 µM) of the same molecule?
Answer: The relative viability was 1.26.

Question: And the relative viability (NCI-H2170; first compound 2.53 µM)?
Answer: Its relative viability is 1.06.

Question: And the relative viability (NCI-H460; first compound 0.08 µM)?
Answer: Its relative viability is 1.03.

Question: And the relative viability (NCI-H460; first compound 0.253 µM)?
Answer: The relative viability was 0.857.

Question: What about the relative viability (NCI-H460; first compound 0.8 µM) of the same molecule?
Answer: The relative viability was 0.858.

Question: What about the relative viability (NCI-H460; first compound 2.53 µM) of the same molecule?
Answer: Its relative viability is 0.776.

Question: What about the relative viability (ChaGo-K-1; first compound 0.08 µM) of the same molecule?
Answer: Its relative viability is 1.17.

Question: What about the relative viability (ChaGo-K-1; first compound 0.253 µM) of the same molecule?
Answer: The relative viability was 0.999.

Question: And the relative viability (ChaGo-K-1; first compound 0.8 µM)?
Answer: Its relative viability is 1.06.

Question: And the relative viability (ChaGo-K-1; first compound 2.53 µM)?
Answer: The relative viability was 0.989.

Question: What about the relative viability (EMC-BAC-2; first compound 0.08 µM) of the same molecule?
Answer: The relative viability was 0.841.

Question: What about the relative viability (EMC-BAC-2; first compound 0.253 µM) of the same molecule?
Answer: Its relative viability is 0.739.

Question: What about the relative viability (EMC-BAC-2; first compound 0.8 µM) of the same molecule?
Answer: Its relative viability is 0.814.

Question: What about the relative viability (EMC-BAC-2; first compound 2.53 µM) of the same molecule?
Answer: Its relative viability is 0.703.

Question: And the relative viability (NCI-H2126; first compound 0.08 µM)?
Answer: The relative viability was 0.996.

Question: What about the relative viability (NCI-H2126; first compound 0.253 µM) of the same molecule?
Answer: The relative viability was 1.02.

Question: And the relative viability (NCI-H2126; first compound 0.8 µM)?
Answer: The relative viability was 0.968.

Question: What about the relative viability (NCI-H2126; first compound 2.53 µM) of the same molecule?
Answer: Its relative viability is 1.01.

Question: And the relative viability (NCI-H647; first compound 0.08 µM)?
Answer: The relative viability was 1.06.

Question: What about the relative viability (NCI-H647; first compound 0.253 µM) of the same molecule?
Answer: The relative viability was 0.783.

Question: And the relative viability (NCI-H647; first compound 0.8 µM)?
Answer: The relative viability was 1.07.

Question: And the relative viability (NCI-H647; first compound 2.53 µM)?
Answer: The relative viability was 0.927.

Question: And the relative viability (NCI-H2347; first compound 0.08 µM)?
Answer: Its relative viability is 0.734.

Question: What about the relative viability (NCI-H2347; first compound 0.253 µM) of the same molecule?
Answer: The relative viability was 0.632.

Question: And the relative viability (NCI-H2347; first compound 0.8 µM)?
Answer: The relative viability was 0.753.

Question: What about the relative viability (NCI-H2347; first compound 2.53 µM) of the same molecule?
Answer: The relative viability was 0.741.

Question: And the relative viability (NCI-H2405; first compound 0.08 µM)?
Answer: The relative viability was 0.883.

Question: And the relative viability (NCI-H2405; first compound 0.253 µM)?
Answer: Its relative viability is 0.774.

Question: What about the relative viability (NCI-H2405; first compound 0.8 µM) of the same molecule?
Answer: Its relative viability is 0.797.

Question: What about the relative viability (NCI-H2405; first compound 2.53 µM) of the same molecule?
Answer: The relative viability was 0.809.

Question: What about the relative viability (NCI-H650; first compound 0.08 µM) of the same molecule?
Answer: Its relative viability is 0.786.

Question: What about the relative viability (NCI-H650; first compound 0.253 µM) of the same molecule?
Answer: Its relative viability is 0.676.

Question: And the relative viability (NCI-H650; first compound 0.8 µM)?
Answer: The relative viability was 0.673.

Question: And the relative viability (NCI-H650; first compound 2.53 µM)?
Answer: The relative viability was 0.611.

Question: And the relative viability (HOP-62; first compound 0.08 µM)?
Answer: The relative viability was 0.892.

Question: And the relative viability (HOP-62; first compound 0.253 µM)?
Answer: The relative viability was 0.816.

Question: And the relative viability (HOP-62; first compound 0.8 µM)?
Answer: Its relative viability is 0.997.

Question: And the relative viability (HOP-62; first compound 2.53 µM)?
Answer: The relative viability was 0.853.

Question: And the relative viability (NCI-H1437; first compound 0.08 µM)?
Answer: Its relative viability is 0.912.

Question: And the relative viability (NCI-H1437; first compound 0.253 µM)?
Answer: Its relative viability is 0.943.

Question: And the relative viability (NCI-H1437; first compound 0.8 µM)?
Answer: Its relative viability is 0.944.

Question: And the relative viability (NCI-H1437; first compound 2.53 µM)?
Answer: Its relative viability is 0.981.

Question: And the relative viability (LCLC-103H; first compound 0.08 µM)?
Answer: The relative viability was 1.04.

Question: And the relative viability (LCLC-103H; first compound 0.253 µM)?
Answer: Its relative viability is 1.12.

Question: And the relative viability (LCLC-103H; first compound 0.8 µM)?
Answer: Its relative viability is 0.984.

Question: And the relative viability (LCLC-103H; first compound 2.53 µM)?
Answer: The relative viability was 0.954.

Question: And the relative viability (HCC-44; first compound 0.08 µM)?
Answer: Its relative viability is 0.781.

Question: And the relative viability (HCC-44; first compound 0.253 µM)?
Answer: Its relative viability is 0.886.

Question: What about the relative viability (HCC-44; first compound 0.8 µM) of the same molecule?
Answer: Its relative viability is 0.774.

Question: And the relative viability (HCC-44; first compound 2.53 µM)?
Answer: The relative viability was 0.767.

Question: And the relative viability (EPLC-272H; first compound 0.08 µM)?
Answer: The relative viability was 0.928.

Question: What about the relative viability (EPLC-272H; first compound 0.253 µM) of the same molecule?
Answer: Its relative viability is 0.872.

Question: And the relative viability (EPLC-272H; first compound 0.8 µM)?
Answer: The relative viability was 0.832.

Question: What about the relative viability (EPLC-272H; first compound 2.53 µM) of the same molecule?
Answer: The relative viability was 0.883.

Question: And the relative viability (NCI-H441; first compound 0.08 µM)?
Answer: The relative viability was 0.845.

Question: What about the relative viability (NCI-H441; first compound 0.253 µM) of the same molecule?
Answer: Its relative viability is 0.528.

Question: And the relative viability (NCI-H441; first compound 0.8 µM)?
Answer: The relative viability was 0.713.

Question: And the relative viability (NCI-H441; first compound 2.53 µM)?
Answer: The relative viability was 0.791.

Question: What about the relative viability (NCI-H520; first compound 0.08 µM) of the same molecule?
Answer: The relative viability was 0.901.

Question: What about the relative viability (NCI-H520; first compound 0.253 µM) of the same molecule?
Answer: Its relative viability is 0.75.

Question: What about the relative viability (NCI-H520; first compound 0.8 µM) of the same molecule?
Answer: Its relative viability is 0.765.

Question: What about the relative viability (NCI-H520; first compound 2.53 µM) of the same molecule?
Answer: Its relative viability is 0.755.

Question: And the relative viability (NCI-H2009; first compound 0.08 µM)?
Answer: Its relative viability is 1.09.

Question: What about the relative viability (NCI-H2009; first compound 0.253 µM) of the same molecule?
Answer: Its relative viability is 0.958.

Question: What about the relative viability (NCI-H2009; first compound 0.8 µM) of the same molecule?
Answer: Its relative viability is 1.

Question: And the relative viability (NCI-H2009; first compound 2.53 µM)?
Answer: The relative viability was 0.892.

Question: What about the relative viability (NCI-H2023; first compound 0.08 µM) of the same molecule?
Answer: The relative viability was 0.775.

Question: What about the relative viability (NCI-H2023; first compound 0.253 µM) of the same molecule?
Answer: The relative viability was 0.696.

Question: And the relative viability (NCI-H2023; first compound 0.8 µM)?
Answer: The relative viability was 0.664.

Question: And the relative viability (NCI-H2023; first compound 2.53 µM)?
Answer: Its relative viability is 0.688.

Question: What about the relative viability (SW 1573; first compound 0.08 µM) of the same molecule?
Answer: The relative viability was 0.932.

Question: And the relative viability (SW 1573; first compound 0.253 µM)?
Answer: Its relative viability is 0.879.

Question: And the relative viability (SW 1573; first compound 0.8 µM)?
Answer: Its relative viability is 0.785.

Question: What about the relative viability (SW 1573; first compound 2.53 µM) of the same molecule?
Answer: Its relative viability is 0.772.

Question: And the relative viability (NCI-H23; first compound 0.08 µM)?
Answer: The relative viability was 0.676.

Question: What about the relative viability (NCI-H23; first compound 0.253 µM) of the same molecule?
Answer: The relative viability was 0.496.

Question: And the relative viability (NCI-H23; first compound 0.8 µM)?
Answer: Its relative viability is 0.638.

Question: And the relative viability (NCI-H23; first compound 2.53 µM)?
Answer: Its relative viability is 0.621.
